Test results as given in patent US20130178441A1, “Methods for Extending Progression-Free Survival using 10-Propargyl-10-Deazaaminopterin” (ALLOS THERAPEUTICS, INC., priority 2010, published 2013).
Values joined by “and” are separate entries in the source; they are usually repeats but may differ in a detail not shown here. Identical values can stand only once. Marks after values point to notes of the source that are not given here.

How the values were obtained:
[1] = system: relapsed or refractory PTCL; test: Progressive resistance analysis: PFS and response rate on pralatrexate vs previous lines of therapy (PDX-008, patients as their own control); type: in vivo, human; details: for Progression-free Survival Median: Kaplan-Meier
Method: Analysis of progressive resistance. The treatment immediately prior to entry into clinical trial PDX-008 provides data from a heterogeneous control group reflecting clinical practice with which to compare the efficacy of pralatrexate. This dataset has the benefit of being from the same patients as those receiving pralatrexate, and so avoids inter-subject variation.
Methodology: In order to explore this progressive resistance concept, retrospective analyses were performed looking at patients' response and PFS to prior therapies using patients as their own control. It was hypothesized that the response rates and PFS would be lower with each subsequent line of therapy (hypothesis #1). Analyses were conducted on those patients who received at least 3 prior therapies. PFS and response rate of third prior therapy (−3) were compared with those of the second prior therapy (−2), PFS and response rate of second prior therapy (−2) were compared with those last line of therapy (−1) prior to pralatrexate, and PFS and response rate of last line of therapy (−1) were compared with pralatrexate therapy for these patients. These analyses utilized investigator assessment of PFS, and response since central review of tumor assessments on prior therapies was not available.
Therefore, an analysis was conducted on all patients comparing PFS and response rate of last line of therapy with those of pralatrexate therapy.
For examining hypothesis #1, there were 57 patients (−3) who had undergone at least 3 prior therapies before entry into PDX-008. […] Examination of the pattern beyond 3 previous treatments would be progressively uninformative as fewer and fewer patients would be entered into the analysis. 1. See also FIG. 2.
There were 86 patients who had undergone at least 2 prior therapies before entry into PDX-008. This cohort included the 57 patients who received 3 or more previous treatments and 29 additional patients who received exactly 2 treatments prior to treatment with pralatrexate.
For examining hypothesis #2, PFS and response rate were compared following pralatrexate treatment with the treatment immediately prior to study entry for all 109 PTCL patients evaluated for efficacy in PDX-008. This cohort included the 86 patients who received 2 or more previous treatments and 23 patients who received only 1 treatment prior to pralatrexate.
Overview of Calculations: Time to progression of disease (PD) was calculated from the start date of the prior therapy administered to the date of progression+1 day.
PFS time was calculated as the number of days from start of prior treatment to the date of PD (date of PD−start date of prior treatment+1).
PFS time was calculated as the number of days from start of treatment to the date of PD or death, regardless of cause (date of PD or death−start date of pralatrexate treatment+1).
In addition, the PFS hazard ratio (HR), along with 95% confidence intervals (CIs), were estimated via the Cox regression model.
To assess the objective response rate (ORR) and PFS with each subsequent line of therapy and the effect of pralatrexate on ORR and PFS: In the first population group (n=57), i.e., group including patients with ≧3 prior systemic therapies, PFS and ORR of the third therapy prior to pralatrexate (−3) were compared with those of the second prior therapy (−2) to pralatrexate; PFS and ORR of the second prior therapy (2) were compared with those of the most recent line of therapy (−1) prior to pralatrexate; and PFS and ORR of the most recent line of therapy (−1) were compared with pralatrexate therapy for these patients.
In the second population group (n=86), i.e., group including patients with ≧2 prior systemic therapies, PFS and ORR of the second prior therapy (2) were compared with those of the most recent line of therapy (−1) prior to pralatrexate; and PFS and ORR of the most recent therapy (−1) were compared with pralatrexate therapy for these patients.

[2] = system: relapsed/refractory PTCL; test: PROPEL subset analysis: patients previously treated with ICE-based regimens (N=20) vs other patients (n=89); type: in vivo, human
Excerpt: The prognosis of aggressive PTCL is dismal. Investigators have developed salvage regimens attempting to improve outcomes for patients with relapsed or refractory disease. One such regimen frequently used is ifosfamide, carboplatin, and etoposide (ICE) or ICE-based regimens (eg, and rituximab-ICE [RICE] and dexamethasome-ICE [DICE]). These regimens can have response rates approaching 70% and patients may proceed to a stem cell transplant, yet most patients tend to relapse quickly (Horwitz et al Blood 2005; 106:a2679). Thus, optimal approaches for patients with relapsed or refractory disease are needed, and agents based on a unique mechanism of action warrant study. This analysis was conducted to determine if pralatrexate offered a beneficial treatment option for patients after treatment with an ICE/RICE/DICE regimen. Methods: Pralatrexate was administered via intravenous push over 3 to 5 minutes at 30 mg/m^2/week for six weeks in 7-week cycles with concurrent 1 mg vitamin B12 intramuscular every 8 to 10 weeks and folic acid 1.0 to 1.25 mg by mouth once daily. 109 patients were treated with pralatrexate in the PROPEL study. All patients in the PROPEL study had received at least 1 prior therapy for PTCL. A subset of 20 patients had received ICE, RICE or DICE at some point prior to treatment with pralatrexate. The efficacy in these patients was compared to the remainder of the patient population who had not received ICE/RICE/DICE as a therapy for PTCL prior to pralatrexate (n=89). The patient population that previously received an ICE-based regimen was heavily pretreated with am edian of 3 prior systemic regimens (range, 2-11). The median age was 45 years, a younger patient population compared with the overall PROPEL population (59 years).
ORR, duration of response, and progression-free survival (PFS) by independent central review and investigator assessment, and OS, are presented in Table 6. Details of the patients who responded to pralatrexate according to assessment by independent central review are provided in Table 7.

[3] = all patients (≧1 prior therapy), N=109, investigator assessment
[4] = patients with ≧2 previous treatments, N=86, investigator assessment
[5] = patients with ≧3 previous treatments, N=57, investigator assessment
[6] = 20 patients with prior ICE/RICE/DICE
[7] = individual responders previously treated with ICE (N=8), central review, some values censored
[8] = of the 8 patients who did not respond to ICE as most recent therapy
[9] = prior ICE-based regimen, N=20, independent central review
[10] = prior ICE-based regimen, N=20, independent central review, Kaplan-Meier
[11] = prior ICE-based regimen, N=20, investigator assessment
[12] = prior ICE-based regimen, N=20, investigator assessment, Kaplan-Meier

Structure (SMILES): C#CCC(Cc1cnc2nc(N)nc(N)c2n1)c1ccc(C(=O)N[C@@H](CCC(=O)O)C(=O)O)cc1 (mixture of isomers) [Pralatrexate, (2S)-2-[[4-[(1RS)-1-[(2,4-diaminopteridin-6-yl)methyl]but-3-ynyl]benzoyl]amino]pentanedioic acid]
- Response Rate [1, 3]: 39%
- Progression-free Survival Median [1, 3]: 121.00 days
- PFS Hazard Ratio, −1 vs pralatrexate ([1]; all patients, N=109, Cox regression, 95% CI): 1.051
- Response Rate (ORR) [1, 4]: 40%
- Progression-free Survival Median [1, 4]: 119.00 days
- Progression-free Survival Median ([1]; patients with ≧2 previous treatments, N=86, investigator assessment, listed as pralatrexate): 119 days
- Trend of decreased ORR and PFS with successive lines of therapy ([1]; patients with ≧3 or ≧2 previous treatments): reversed
- Response Rate (ORR) [1, 5]: 40%
- Progression-free Survival Median [1, 5]: 134.00 days
- Progression-free Survival Median ([1]; patients with ≧3 previous treatments, N=57, investigator assessment, listed as pralatrexate): 134 days
- CR/CRu based on investigators assessment [2, 6]: 25%
- Complete responses [CR] by independent central review [2, 6]: 15%
- ORR based on investigators assessment [2, 6]: 40%
- Overall response rate (ORR) by independent central review [2, 6]: 40%
- Median PFS in the 20 patients relative to that of the other patients ([2]; central review): over 3 times
- Duration of Response (months) [2, 7]: 17.1^b months and 13.1 months and 10.1 months and 3.4 months and 1.6 months
- PFS (months) [2, 7]: 14.4 months and 17.8 months and 4.8 months and 3.0 months
- Duration of Response (months) ([2]; individual responders previously treated with ICE (N=8), central review, some values censored, listed as pralatrexate): 1.3 months and 4.9 months
- CR to pralatrexate [2, 8]: 2 patients
- PR to pralatrexate [2, 8]: 1 patients
- Patients who responded to pralatrexate [2, 8]: 3 patients
- Patients who responded to pralatrexate ([2]; of the 15 patients who did not have a response to a prior ICE-based regimen): 40%
- Patients who proceeded to a stem cell transplant upon attaining a response to pralatrexate ([2]; of the 20 patients with prior ICE/RICE/DICE): Two
- CR/CRu based on investigators assessment ([2]; other 89 patients): 17%
- CR/CRu by independent central review ([2]; other 89 patients): 10%
- Median PFS according to central review ([2]; other 89 patients): 3.3 months
- Median duration of response by central review ([2]; other 89 patients): 9.4 months
- Median duration of response per investigator assessment ([2]; other 89 patients): 6.8 months
- ORR based on investigators assessment ([2]; other 89 patients): 39%
- ORR by independent central review ([2]; other 89 patients (no prior ICE/RICE/DICE)): 27%
- OS, Median, months (95% CI) ([2]; prior ICE-based regimen, N=20, Kaplan-Meier): 12.0 (5.2, 23.4) months
- Duration of response, Range [2, 9]: 1.3-22.1 months
- Tumor response: CR [2, 9]: 3 (15) n (%)
- Tumor response: ORR (CR + PR) [2, 9]: 8 (40) n (%)
- Tumor response: PD [2, 9]: 4 (20) n (%)
- Tumor response: PR [2, 9]: 5 (25) n (%)
- Tumor response: SD [2, 9]: 2 (10) n (%)
- Duration of response, Median, months (95% CI) [2, 10]: 13.1 months and 13.1 (3.4, NA) months
- PFS, Median, months (95% CI) [2, 10]: 14.4 months and 14.4 (1.5, NA) months
- Tumor response: CR [2, 11]: 5 (25) n (%)
- Tumor response: NA (not assessable) [2, 11]: 1 (5) n (%)
- Tumor response: ORR (CR + PR) [2, 11]: 8 (40) n (%)
- Tumor response: PD [2, 11]: 6 (30) n (%)
- Tumor response: PR [2, 11]: 3 (15) n (%)
- Tumor response: SD [2, 11]: 5 (25) n (%)
- Duration of response, Median, months (95% CI) [2, 12]: 16.2 months and 16.2 (3.4, NA) months
- PFS, Median, months (95% CI) [2, 12]: 4.8 (2.5, 14.4) months
- OS, Range ([2]; prior ICE-based regimen, N=20, survival follow up ended at two years): 1.1-24.0^d months
